Laboratory results taken from US10035778B2, “Meta-azacyclic amino benzoic acid derivatives as pan integrin antagonists” (Saint Louis University, priority 2015, dated 2018).

Experiments:
Format in all cases: in vivo
[1] = IV cassette pharmacokinetic study in male Sprague-Dawley rats (Saint Louis University); settings: plasma; male Sprague-Dawley rat, 1 mg/kg IV cassette, sampling to 24 h; read-out: plasma t½ after 1 mg/kg IV bolus dose in rat (converted)
Method: (§1) A minimally sufficient volume of dimethylsulfoxide (DMSO) was added to each test compound to achieve solubilization. For intravenous (IV) delivery, compounds were then formulated as solutions in glycerol formal: saline (either 20:80 or 40:60 v/v) (Sigma Chemicals, St. Louis). For oral (PO) administration, compounds were formulated with 0.5% methylcellulose. Five to six compound solutions were combined into a singled mixed solution for IV and PO cassette administration with final DMSO concentrations <0.6% or <1.2%, for the IV and PO cassettes, respectively. Analytes were detected in test samples using an LC/MS/MS (liquid chromatography/mass spectrometry) system consisting of an LC-20AD pump (Shimadzu, Kyoto, Japan), an HTC PAL autosampler (Leap technologies, Carrboro, N.C.), and a Sciex API-4000 mass spectrometer in ESI mode (AB Sciex, Foster City, Calif.). An Amour C18 reverse phase column (Analytical Sales and Services, Pompton Plains, N.J.) was used for chromatographic separation.
(§2) Pharmacokinetic (PK) studies conducted at Saint Louis University used male Sprague-Dawley rats with an initial body weight of 200 to 220 g. IV PK studies were performed with the following compounds: Examples 1-3 and 5-17 and comparison compounds C12-C18, C29, and C30. Animals were allowed free access to food and water. Rats were individually housed and connected to jugular vein catheters. Each cassette formulation was administered intravenously to two rats (1 mL/kg body weight). Each cassette formulation contained 5-6 compounds at 1 mg/kg in either 20:80 or 40/60 glycerol formal/saline (v/v). Blood was collected manually via the catheter into lithium-heparin tubes at 0.017, 0.083, 0.5, 1, 2, 4, 6 and 24 hours post-dose. Animals were euthanized with CO2 at the end of the experiment.
(§3) Internal standard was added to all samples at 200 ng/mL (final), as well as 150 μL of acetonitrile. Plasma samples (50 μL total volume) were diluted with control nave rat plasma as appropriate to bring the sample measurement into the linear dynamic range of the standard curve. The samples were capped and mixed on a multi-plate vortexer for 5 minutes and centrifuged for 5 minutes at 3200 rmp. The supernant was transferred to 96-well sample plate and capped for LC/MS/MS analysis. Compounds were optimized and monitored for their respective MRM transitions. The mobile phases consisted of 0.1% formic acid (aqueous) and 100% acetonitrile (organic) with an Amour C18 reverse phase column (2.1×30 mm, 5 micron) at a flow rate of 0.35 mL/min. The starting phase was 10% acetonitrile for the 0.9 minutes then increased to 90% acetonitrile over 0.4 minutes, and was maintained for an additional 0.2 minutes before returning to 10% acetonitrile over 0.4 minutes. The 10% acetonitrile was held for an additional 1.6 minutes. Peak areas were integrated using Analyst 1.5.1 (AB Sciex, Foster City, Calif.).

[2] = Oral (PO) cassette pharmacokinetic study in male Sprague-Dawley rats; settings: plasma; male Sprague-Dawley rat, 2 mg/kg oral gavage cassette in 0.5% methylcellulose; read-out: AUC (0-inf) after a 2 mg/kg PO dose in rat
Method: as §1, §2
Oral PK studies were conducted with the following compounds: Examples 1-3 and 5-17 and comparison compounds C12, C14-16 and C29-30. The PO cassette formulations were administered via oral gavage to two rats (10 mL/kg body weight) containing 5-6 compounds per cassette. The oral dose was administered at 2 mg/kg/compound in 0.5% methylcellulose. Blood collection time points were 0.25, 0.5, 1, 2, 4, 6 and 24 hours post-dose into lithium-heparin tubes. Animals were euthanized with CO2 at the end of the experiment.
as §3

[3] = IV cassette pharmacokinetic study in female Sprague-Dawley rats (PRESCOS, LLC); settings: plasma; female Sprague-Dawley rat, 1 mg/kg IV cassette, sampling to 8 h (PRESCOS); read-out: plasma t½ after 1 mg/kg iv bolus dose in rat (converted)
Method: Similar rat PK studies were conducted by PRESCOS, LLC (San Diego, Calif.) for comparison compounds C19-C28. Female Sprague-Dawley rats with an initial body weight of 195 to 220 g were used. Cassette formulations with 1 mg/kg/compound in 40/60 glycerol formal/saline were administered intravenously to three rats. The dosing volume for each animal was 5 mL/kg body weight. Blood samples were collected via a jugular vein catheter at 0.017, 0.25, 0.5, 1, 2, 4 and 8 hours post-dose into K2EDTA tubes. Animals were euthanized with CO2 at the end of the experiment. Sample processing and compound measurement by LC/MS/MS was performed by HT Laboratories (San Diego, Calif.).

In the case of `CC(C)(C)c1cc(Br)cc([C@H](CC(=O)O)NC(=O)CNC(=O)c2cc(O)cc(NC3=NCC(O)CN3)c2)c1` (stereo partly shown) [Example C12, reference compound], the half-life [1] is reported as 30 min and the AUC(0-inf) [2] is reported as 205 ng·h/mL.
With `CC(C)(C)c1cc(Br)c(O)c([C@H](CC(=O)O)NC(=O)CNC(=O)c2cc(O)cc(NC3=NCC(O)CN3)c2)c1` (stereo partly shown) [Example C13, reference compound] the half-life [1] was 66 min.
Compound `CC(C)(C)c1cc(Br)cc([C@H](CC(=O)O)NC(=O)CNC(=O)c2cc(O)cc(NC3=NCC(O)CN3)c2)c1O` (stereo partly shown) [Example C14, reference compound] has a half-life [1] of 60 min and an AUC(0-inf) [2] of 224 ng·h/mL.
`CC(C)(O)c1cc(Br)cc([C@H](CC(=O)O)NC(=O)CNC(=O)c2cc(O)cc(NC3=NCC(O)CN3)c2)c1` (stereo partly shown) [Example C15, reference compound] gave a half-life [1] of 36 min and an AUC(0-inf) [2] of 87 ng·h/mL.
For `CC(C)(O)c1cc(Cl)cc([C@H](CC(=O)O)NC(=O)CNC(=O)c2cc(O)cc(NC3=NCC(O)CN3)c2)c1` (stereo partly shown) [Example C16, reference compound], the half-life [1] was 96 min and the AUC(0-inf) [2] was 62 ng·h/mL.
With `CC(C)(C)c1cc(Br)cc([C@H](CC(=O)O)NC(=O)CNC(=O)c2cccc(NC(=N)N)c2)c1` [Example C17, reference compound] the half-life [1] was 48 min.
Compound `CC(C)(C)c1cc(Br)cc([C@H](CC(=O)O)NC(=O)CNC(=O)c2cccc(NC3=NCCN3)c2)c1` [Example C18, reference compound] has a half-life [1] of 72 min.
`CC(C)(C#N)c1cc(Br)cc([C@H](CC(=O)O)NC(=O)CNC(=O)c2cc(O)cc(NC3=NCC(O)CN3)c2)c1` (stereo partly shown) [Example C19] showed a half-life [3] of 25.8 min.
`CC(C)(C)c1cc(C#N)cc([C@H](CC(=O)O)NC(=O)CNC(=O)c2cc(O)cc(NC3=NCC(O)CN3)c2)c1` (stereo partly shown) [Example C20] gave a half-life [3] of 22.8 min.
In the case of `CC(C)(O)c1cc([C@H](CC(=O)O)NC(=O)CNC(=O)c2cc(O)cc(NC3=NCC(O)CN3)c2)cc(C(F)(F)F)c1` (stereo partly shown) [Example C21], the half-life [3] is reported as 90 min.
In the case of `O=C(O)C[C@H](NC(=O)CNC(=O)c1cc(O)cc(NC2=NCC(O)CN2)c1)c1cc(Cl)cc(C2(CF)CCOCC2)c1` (stereo partly shown) [Example C22], the half-life [3] is reported as 18 min.
`CC(C)(c1cc(Cl)cc([C@H](CC(=O)O)NC(=O)CNC(=O)c2cc(O)cc(NC3=NCC(O)CN3)c2)c1)C(F)(F)F` (stereo partly shown) [Example C23] showed a half-life [3] of 12.6 min.
In the case of `CC(O)(c1cc(Cl)cc([C@H](CC(=O)O)NC(=O)CNC(=O)c2cc(O)cc(NC3=NCC(O)CN3)c2)c1)C(F)(F)F` (stereo partly shown) [Example C24], the half-life [3] is reported as 16.8 min.
`N#CC1(c2cc(Cl)cc([C@H](CC(=O)O)NC(=O)CNC(=O)c3cc(O)cc(NC4=NCC(O)CN4)c3)c2)CCC1` (stereo partly shown) [Example C25] gave a half-life [3] of 13.8 min.
For `N#CC1(c2cc(Cl)cc([C@H](CC(=O)O)NC(=O)CNC(=O)c3cc(O)cc(NC4=NCC(O)CN4)c3)c2)CCOCC1` (stereo partly shown) [Example C26], the half-life [3] was 15 min.
In the case of `CC(O)(c1cc([C@H](CC(=O)O)NC(=O)CNC(=O)c2cc(O)cc(NC3=NCC(O)CN3)c2)cc(C(F)(F)F)c1)C(F)(F)F` (stereo partly shown) [Example C27], the half-life [3] is reported as 12.6 min.
Compound `O=C(O)C[C@H](NC(=O)CNC(=O)c1cc(O)cc(NC2=NCC(O)CN2)c1)c1cc(Br)cc(C2(C(F)F)CC2)c1` (stereo partly shown) [Example C28] has a half-life [3] of 18 min.
With `O=C(O)C[C@H](NC(=O)CNC(=O)c1cc(O)cc(NC2=NCC(O)CN2)c1)c1ccccc1` (stereo partly shown) [Example C29, reference compound] the half-life [1] was less than 4.8 min and the AUC(0-inf) [2] was less than 1 ng·h/mL.
Compound `NC(=O)c1cc(Cl)cc([C@H](CC(=O)O)NC(=O)CNC(=O)c2cc(O)cc(NC3=NCC(O)CN3)c2)c1` (stereo partly shown) [Example C30, reference compound] has a half-life [1] of 96 min and an AUC(0-inf) [2] of less than 1 ng·h/mL.
